Source: patent US20090239757A1, “Control Sequences Responding to AMP and Uses Thereof” (priority 2004, published 2009)
Residues, ends and D or L forms follow the SMILES beside them.

Columns and labels:
E. coli = test: growth and killing of E. coli on induced expression of novispirin (Suicide Expression System); assay type: cell-based, Escherichia coli
Excerpt: In the examples below the method of the invention has been illustrated using novispirin as the antimicrobial peptide and E. coli as the host cell. To assess the sustained physiological response of E. coli to novispirin, an arabinose induction system was used to make E. coli produce novispirin at a sub-lethal rate. […] These categories comprise particularly genes related to membrane dysfunction, heat shock, phage shock and antimicrobial peptide defense.
A plasmid was constructed to investigate the transcriptional response of E. coli upon expressing Novispirin G10 in a Suicide Expression System (SES) setup. The SES takes advantage of conditionally expressing antimicrobial peptides in a sensitive host. The degree of inhibition in the host reflects the potency of the antimicrobial peptide (AMP) (WO200073433). In the current setup, the AMP is exported to the periplasmic space where it interacts with the inner and/or outer membrane of E. coli.
In order to obtain a transcriptional profile of E. coli expressing Novispirin G10, 2×10 mL sterile LB media (10 g/L Bactotryptone, 5 g/L Yeast extract, and 10 g/L NaCl) containing 100 mg/L ampicillin was inoculated with E. coli TOP10 harbouring pDRS5-novispirin and pBAD gIII A, respectively. These cultures were grown overnight at 37° C. at 180 rpm. […]

[1] = test system: Gram-positive and Gram-negative bacteria; settings: U.S. Pat. No. 6,492,328; cited from earlier work

Structure (SMILES): CC[C@H](C)[C@H](NC(=O)CNC(=O)[C@H](CCCCN)NC(=O)[C@H](CCCNC(=N)N)NC(=O)[C@@H](NC(=O)[C@@H](NC(=O)[C@H](CCCNC(=N)N)NC(=O)[C@H](CCCNC(=N)N)NC(=O)[C@H](CC(C)C)NC(=O)[C@H](CC(N)=O)NC(=O)[C@@H](N)CCCCN)[C@@H](C)CC)[C@@H](C)CC)C(=O)N[C@@H](Cc1c[nH]cn1)C(=O)N[C@H](C(=O)N[C@H](C(=O)N[C@@H](CCCCN)C(=O)N[C@@H](CCCCN)C(=O)N[C@@H](Cc1ccc(O)cc1)C(=O)NCC(=O)O)[C@@H](C)CC)[C@@H](C)CC [Novispirin G10] (H-KNLRRIIRKGIHIIKKYG-OH; N-terminus assumed)
- growth rate on induction of novispirin expression (E. coli; arabinose induction, sub-lethal rate, growth was not completely inhibited): reduced the growth rate significantly
- inhibition and killing of the host when the AMP is expressed (E. coli; expressed and exported to the periplasmic space, as opposed to adding purified peptide to a cell culture): prolong the inhibition and delay killing
- antimicrobial activity [1]: activity against both Gram-positive and Gram-negative bacteria
